As a reminder, the IC50 is the concentration that inhibits the measured activity by half. Low values mean inhibition by little substance, high ones a need for much substance. What is called inhibition is the drop in the measured response relative to a control, in per cent.

The first assay deals with Human VPS34 (Homo sapiens (Human), UniProt Q8NEB9). Put plainly: Human VPS34 enzyme assay (Adapta TR-FRET). The format is biochemical. The note with it: IC50 range class. On the technique in general: In TR-FRET formats the signal depends on donor and acceptor labels being close together.
Sequence of Human VPS34 (Q8NEB9 whole entry): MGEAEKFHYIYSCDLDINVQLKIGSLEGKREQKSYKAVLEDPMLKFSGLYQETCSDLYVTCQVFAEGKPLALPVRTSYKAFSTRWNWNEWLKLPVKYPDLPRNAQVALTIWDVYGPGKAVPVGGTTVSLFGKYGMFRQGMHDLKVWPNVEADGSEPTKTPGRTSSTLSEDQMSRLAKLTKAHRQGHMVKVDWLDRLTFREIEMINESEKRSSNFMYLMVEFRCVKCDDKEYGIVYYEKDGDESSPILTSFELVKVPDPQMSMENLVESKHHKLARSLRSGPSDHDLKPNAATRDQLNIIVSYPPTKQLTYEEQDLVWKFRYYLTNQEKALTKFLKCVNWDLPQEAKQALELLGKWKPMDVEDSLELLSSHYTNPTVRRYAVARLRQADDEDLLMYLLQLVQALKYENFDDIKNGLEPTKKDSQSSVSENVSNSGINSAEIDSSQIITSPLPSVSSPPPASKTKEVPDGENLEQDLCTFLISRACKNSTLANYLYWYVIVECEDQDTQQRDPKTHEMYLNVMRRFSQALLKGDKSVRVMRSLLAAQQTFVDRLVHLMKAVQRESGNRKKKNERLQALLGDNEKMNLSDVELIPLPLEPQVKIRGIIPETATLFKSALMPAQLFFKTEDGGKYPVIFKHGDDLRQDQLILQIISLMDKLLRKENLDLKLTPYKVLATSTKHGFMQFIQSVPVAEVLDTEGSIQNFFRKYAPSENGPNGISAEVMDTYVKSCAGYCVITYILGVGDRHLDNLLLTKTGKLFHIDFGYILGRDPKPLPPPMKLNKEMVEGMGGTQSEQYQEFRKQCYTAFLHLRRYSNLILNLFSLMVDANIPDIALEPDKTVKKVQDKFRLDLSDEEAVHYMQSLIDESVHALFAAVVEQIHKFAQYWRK
The molecule `CC(=O)Nc1cc(-c2cnc(N)c(NS(=O)(=O)c3ccc(F)cc3F)c2)ccn1` [Compound I-64, N-(6-amino-5-{[(2,4-difluorophenyl)sulfonyl]amino}-3,4′-bipyridin-2′-yl)acetamide] displayed an IC50 of less than 10 nM.

Staying with this assay, now noted: compound concentration 1.11 μM.
With `CC(=O)Nc1cc(-c2cnc(N)c(S(=O)(=O)NCC(C)C)c2)ccn1` [Compound I-73, N-[6-amino-5-(isobutylsulfamoyl)-3,4′-bipyridin-2′-yl]acetamide], the “Percent Inhibition” value is greater than 99%.

Still in this assay, the particulars now being: compound concentration 1.11 μM; read-out: Percent Inhibition.
As to `CC(=O)Nc1cc(-c2cnc(Cl)c(NS(=O)(=O)c3ccccc3)c2)c(C)cn1` [Compound I-56, N-{6-chloro-5′-methyl-5-[(phenylsulfonyl)amino]-3,4′-bipyridin-2′-yl}acetamide], the inhibition at 1.11 µM is greater than 99%.

Regarding `CNC(=O)c1cc(-c2ccnc(NC(C)=O)c2)cnc1N` [Compound I-57, 2′-acetamido-6-amino-N-methyl-3,4′-bipyridine-5-carboxamide], the inhibition at 1.11 µM was greater than 99%.

As for `COc1cc(F)ccc1S(=O)(=O)Nc1cc(-c2ccnc(NC(C)=O)c2)cnc1C` [Compound I-58, N-(5-{[(4-fluoro-2-methoxyphenyl)sulfonyl]amino}-6-methyl-3,4′-bipyridin-2′-yl)acetamide], the inhibition at 1.11 µM was greater than 99%.

With `CC(=O)Nc1cc(-c2cnc(C)c(NS(=O)(=O)c3ccc(F)c(F)c3)c2)ccn1` [Compound I-59, N-(5-{[(3,4-difluorophenyl)sulfonyl]amino}-6-methyl-3,4′-bipyridin-2′-yl)acetamide], the inhibition at 1.11 µM is greater than 99%.

Consider `CC(=O)Nc1cc(-c2cnc(N)c(C(=O)N3CCC(F)(F)C3)c2)ccn1` [Compound I-60, N-{6-amino-5-[(3,3-difluoropyrrolidin-1-yl)carbonyl]-3,4′-bipyridin-2′-yl}acetamide], for which the inhibition at 1.11 µM is greater than 99%.

As for `CC(=O)Nc1cc(-c2cnc(N)c(S(N)(=O)=O)c2)ccn1` [Compound I-61, N-(6-amino-5-sulfamoyl-3,4′-bipyridin-2′-yl)acetamide], the inhibition at 1.11 µM came to 95%.

Turning to `CC(=O)Nc1cc(-c2cnc(C)c(NS(=O)(=O)c3ccccc3C(F)(F)F)c2)ccn1` [Compound I-62, N-[6-methyl-5-({[2-(trifluoromethyl)phenyl]sulfonyl}amino)-3,4′-bipyridin-2′-yl]acetamide], the inhibition at 1.11 µM is greater than 99%.

Consider `CNc1ncc(-c2ccnc(NC(C)=O)c2)cc1S(=O)(=O)Nc1ccc(F)cc1F` [Compound I-63, N-{5-[(2,4-difluorophenyl)sulfamoyl]-6-(methylamino)-3,4′-bipyridin-2′-yl}acetamide], for which the inhibition at 1.11 µM was greater than 99%.

On to `CC(=O)Nc1cc(-c2cnc(N)c(NS(=O)(=O)c3ccc(F)cc3F)c2)ccn1` [Compound I-64, N-(6-amino-5-{[(2,4-difluorophenyl)sulfonyl]amino}-3,4′-bipyridin-2′-yl)acetamide], for which the inhibition at 1.11 µM was greater than 99%.

Consider `CC(=O)Nc1cc(-c2cnc(NCC3CC3)c(NCC3CC3)c2)ccn1` [Compound I-65, N-{5,6-bis[(cyclopropylmethyl)amino]-3,4′-bipyridin-2′-yl}acetamide], for which the inhibition at 1.11 µM stood at 93%.

With `CC(=O)Nc1cc(-c2cnc3[nH]c(C)nc3c2)ccn1` [Compound I-66, N-[4-(2-methyl-3H-imidazo[4,5-b]pyridin-6-yl)pyridin-2-yl]acetamide], the inhibition at 1.11 µM was found to be 88%.

For `CC(=O)Nc1cc(-c2cnc3c(c2)CCN3)ccn1` [Compound I-67, N-[4-(2,3-dihydro-1H-pyrrolo[2,3-b]pyridin-5-yl)pyridin-2-yl]acetamide], the inhibition at 1.11 µM was greater than 99%.

With `CC(=O)Nc1cc(-c2cnc3c(c2)NS(=O)(=O)N3CC2CC2)ccn1` [Compound I-68, N-{4-[3-(cyclopropylmethyl)-2,2-dioxido-1,3-dihydro[1,2,5]thiadiazole[3,4-b]pyridin-6-yl]pyridin-2-yl}acetamide], the inhibition at 1.11 µM was found to be 98%.

For the molecule `CCS(=O)(=O)c1cc(-c2ccnc(NC(C)=O)c2)cnc1N` [Compound I-69, N-[6-amino-5-(ethylsulfonyl)-3,4′-bipyridin-2′-yl]acetamide], the inhibition at 1.11 µM was greater than 99%.

`CC(=O)Nc1cc(-c2cnc(C)c(NS(=O)(=O)c3cccc(C(C)(C)C)c3)c2)ccn1` [Compound I-70, N-(5-{[(3-tert-butylphenyl)sulfonyl]amino}-6-methyl-3,4′-bipyridin-2′-yl)acetamide]: the inhibition at 1.11 µM is greater than 99%.

Turning to `CC(=O)Nc1cc(-c2cnc(N)c(C(=O)N3CCc4ccccc43)c2)ccn1` [Compound I-71, N-[6-amino-5-(2,3-dihydro-1H-indol-1-ylcarbonyl)-3,4′-bipyridin-2′-yl]acetamide], the inhibition at 1.11 µM was greater than 99%.

In the case of `CC(=O)Nc1cc(-c2cnc(C)c(NS(=O)(=O)C3CCCCC3)c2)ccn1` [Compound I-72, N-{5-[(cyclohexylsulfonyl)amino]-6-methyl-3,4′-bipyridin-2′-yl}acetamide], the inhibition at 1.11 µM is greater than 99%.

As for `COc1ccccc1S(=O)(=O)Nc1cc(-c2ccnc(NC(C)=O)c2)cnc1C` [Compound I-74, N-(5-{[(2-methoxyphenyl)sulfonyl]amino}-6-methyl-3,4′-bipyridin-2′-yl)acetamide], the inhibition at 1.11 µM is greater than 99%.

In the case of `CC(=O)Nc1cc(-c2cnc(C)c(C(=O)N(C)C)c2)ccn1` [Compound I-75, 2′-acetamido-N,N,6-trimethyl-3,4′-bipyridine-5-carboxamide], the inhibition at 1.11 µM was greater than 99%.

As for `CC(=O)Nc1cc(-c2cnc(N)c(S(=O)(=O)N(C)Cc3ccccc3)c2)ccn1` [Compound I-76], the inhibition at 1.11 µM was greater than 99%.

`CC(=O)Nc1cc(-c2cnc(N)c(S(=O)(=O)N(C(C)C)C(C)C)c2)ccn1` [Compound I-77, N-[6-amino-5-(diisopropylsulfamoyl)-3,4′-bipyridin-2′-yl]acetamide]: the inhibition at 1.11 µM is greater than 99%.

As for `CC(=O)Nc1cc(-c2cnc(C)c(NS(=O)(=O)c3cccc4ccccc34)c2)ccn1` [Compound I-78, N-{6-methyl-5-[(1-naphthylsulfonyl)amino]-3,4′-bipyridin-2′-yl}acetamide], the inhibition at 1.11 µM was greater than 99%.

Turning to `CC(=O)Nc1cc(-c2cnc(N)c(C(=O)N3CCN(C)CC3)c2)ccn1` [Compound I-79, N-{6-amino-5-[(4-methylpiperazin-1-yl)carbonyl]-3,4′-bipyridin-2′-yl}acetamide], the inhibition at 1.11 µM was greater than 99%.

As for `CC(=O)Nc1cc(-c2cnc(C)c(NS(=O)(=O)c3ccc(C)cc3)c2)ccn1` [Compound I-80, N-(6-methyl-5-{[(4-methylphenyl)sulfonyl]amino}-3,4′-bipyridin-2′-yl)acetamide], the inhibition at 1.11 µM is greater than 99%.

Take `CC(=O)Nc1cc(-c2cnc(N)c(C(=O)N3CCC(C)CC3)c2)ccn1` [Compound I-81, N-{6-amino-5-[(4-methylpiperidin-1-yl)carbonyl]-3,4′-bipyridin-2′-yl}acetamide]: the inhibition at 1.11 µM is greater than 99%.

Consider `CC(=O)Nc1cc(-c2cnc(N)c(C(=O)Nc3cccc(F)c3)c2)ccn1` [Compound I-82, 2′-acetamido-6-amino-N-(3-fluorophenyl)-3,4′-bipyridine-5-carboxamide], for which the inhibition at 1.11 µM is greater than 99%.

Take `CC(=O)Nc1cc(-c2cnc(C)c(N(CC3CC3)S(=O)(=O)C3CC3)c2)ccn1` [Compound I-83, N-{5-[(cyclopropylmethyl)(cyclopropylsulfonyl)amino]-6-methyl-3,4′-bipyridin-2′-yl}acetamide]: the inhibition at 1.11 µM is 82%.

On to `CC(=O)Nc1cc(-c2cnc(C)c(NS(=O)(=O)c3ccccc3)c2)ccn1` [Compound I-84, N-{6-methyl-5-[(phenylsulfonyl)amino]-3,4′-bipyridin-2′-yl}acetamide], for which the inhibition at 1.11 µM is greater than 99%.

These data come from patent US9802960B2 (MILLENNIUM PHARMACEUTICALS, INC., priority 2014, dated 2017).
